In ChEMBL document CHEMBL2407091, “Effect of the orthoquinone moiety in 9,10-phenanthrenequinone on its ability to induce apoptosis in HCT-116 and HL-60 cells” (2013):
Calls of active or inactive are those of the source. No cut-off for these calls is given here.

How the values were obtained:
HL-60 [1] = assay: Cytotoxicity against human HL60 cells after 24 hrs by WST-1 assay; assay type: functional; conditions: HL-60, 24 h, read-out: LC50 (the source's name)
HCT-116 [2] = assay: Cytotoxicity against human HCT116 cells after 24 hrs by MTT assay; assay type: functional; conditions: HCT-116, 24 h, read-out: LC50 (the source's name)
HL-60 [3] = assay: Induction of apoptosis in human HL60 cells assessed as caspase-3 activation at 10 uM after 4 hrs by FACS flow cytometric analysis; assay type: functional, cell-based
HL-60 [4] = assay: Induction of apoptosis in human HL60 cells assessed as DNA fragmentation at 10 uM after 6 hrs by electrophoretic analysis; assay type: functional, cell-based
HL-60 [5] = assay: Cytotoxicity against human HL60 cells at 5 uM after 24 hrs by WST-1 assay; assay type: functional, cell-based
HCT-116 [6] = assay: Cytotoxicity against human HCT116 cells at >2.5 uM after 24 hrs by MTT assay; assay type: functional, cell-based

| SMILES | CC50 (HL-60 [1]) [µM] | CC50 (HCT-116 [2]) [µM] | Activity (HL-60 [3]) | Activity (HL-60 [4]) | Activity (HL-60 [5]) | Activity (HCT-116 [6]) |
| --- | --- | --- | --- | --- | --- | --- |
| O=C1C(=O)c2cccc3cccc1c23 [ACENAPHTHOQUINONE] | > 10 | > 10 | – | – | – | – |
| O=C1C(=O)c2cccnc2-c2ncccc21 | 1.57 | 0.73 | Active | Active | – | – |
| O=c1[nH]c2ccccc2c2ccccc12 | > 10 | > 10 | – | – | – | – |
| O=C(C(=O)c1ccccc1)c1ccccc1 [BENZIL] | > 10 | > 10 | – | – | – | – |
| c1ccc2c(c1)ccc1ccccc12 [PHENANTHRENE] | > 10 | > 10 | – | – | – | – |
| O=C1C=Cc2ccccc2C1=O [1,2-NAPHTHOQUINONE] | 7.14 | 9.2 | – | – | – | – |
| Oc1cc2ccccc2c2ccccc12 | > 10 | > 10 | – | – | – | – |
| O=C1C(=O)c2ccccc2-c2ccccc21 [9,10-PHENANTHRENEQUINONE] | 3.38 | 1.43 | Active | Active | Active | Active |
| O=c1c(=O)c2cccc3ccc4cccc1c4c32 | 3.41 | 0.86 | Active | Active | – | – |
| c1ccc2c(c1)CCc1ccccc1-2 [DIHYDROPHENANTHRENE] | > 10 | > 10 | – | – | – | – |
